# Source: patent US11191843B2, “Multi-arm targeting anti-cancer conjugate” (priority 2017, dated 2021)
# Test system: orthotopic U87MG brain glioma
# Experiment: Effect on survival in orthotopic U87MG brain glioma model in nude mice
# Type: in vivo
# Details: BALB/c nude mice, 40 mg·kg^-1 (as irinotecan), i.v. via tail, Q4D×3, dosing from day 12 after inoculation
# Description: Experimental animals: Female BALB/c nude mice (number of animals: 150, weeks of age: 6 to 8 weeks) were purchased from Beijing Vital River Laboratory Animal Technology Co., Ltd., and housed in an SPF animal room. The temperature was 20° C. to 25° C., the relative humidity was 40% to 70%, and the light and dark were respectively 12 hours. The animals had free access to water and food. After about one week of normal feeding, upon a veterinary inspection, mice with good physical signs and conditions could be selected for this experiment. A marking pen was used to mark the base of the tails of the animals before the grouping, and each animal was marked by ear clipping after the grouping.
# Transplantable tumor cell strain: Brain glioma cell U87MG, derived from Cell Bank of Committee on Type Culture Collection of Chinese Academy of Science (CAS, stored frozen in liquid nitrogen in the laboratory).
# According to the condition of cell growth, the cells were passaged once or twice every week, and were passaged in a ratio of 1:2 to 1:6.
# Preparation of the animal model: U87MG cells in logarithmic phase of growth were collected. […] The cells were charged into a 50 mL centrifuge tube after being pipetted with a pipettor to make them evenly dispersed, and the centrifuge tube was placed in an ice box. […]
# Data recording and calculation formula: The survival time of the animals were recorded.
compound,measurement,value
CCc1c2c(nc3ccc(OC(=O)N4CCC(N5CCCCC5)CC4)cc13)-c1cc3c(c(=O)n1C2)COC(=O)[C@]3(O)CC [irinotecan],Median survival time,27 days
